# Results published in patent US20250157614A1, “SUBSTANCE DELIVERY PLANNING SYSTEM” (Syqe Medical Ltd., priority 2019, published 2025).
# How the values were obtained:
# [1] = Clinical trial: pharmacokinetic analysis of Δ9-THC plasma levels after single inhalation via metered dose inhaler
# Experimental: An objective of the trial was to evaluate the effects of a single inhalation of vaporized ground cannabis doses comprising 0.5 mg or 1 mg THC, as compared to placebo. […] The patients were licensed to use medical cannabis and were guided to refrain from using cannabis at least 12 hours prior to the trial commencement. The patients were guided how to use the inhaler device and signed a written consent.
# The trial included three sessions, with an interval of at least 48 hours between sessions. In each of the sessions, a randomized single dose or placebo was delivered to the patients via inhalation. During each session, at a plurality of pre-defined time points, the patients were cognitively tested using “Cambridge Neuropsychological Test Automated Battery”; questioned for assessment of pain (using the VAS); their blood pressure and heartrate were measured; and they were questioned regarding safety parameters, such as feeling “high”, dizziness, mouth dryness. Blood samples were collected at pre-defined time points for performing a pharmacokinetic analysis of THC (being the active substance, in accordance with some embodiments).
# chronic pain = test: Clinical trial: pain intensity (0-10 point VAS) after single inhalation via metered dose inhaler; assay type: in vivo, human (hospitalized adult patients)
# Source text: FIG. 5B presents effects of the three different interventions on pain intensity. About 1 VAS point decline in pain intensity was noted during the follow-up period following placebo administration.
# [2] = single inhalation of 0.5 mg Δ9-THC
# [3] = single inhalation of 1 mg Δ9-THC
# [4] = 0.5 mg dosage, observed at 120 minutes following inhalation
# [5] = 1 mg dosage, observed at 60 minutes following inhalation
compound,measurement,setting,value
"CCCCCc1cc(O)c2c(c1)OC(C)(C)[C@@H]1CCC(C)=C[C@@H]21 [Δ9-THC, Δ9-tetrahydrocannabinol]",mean area under the curve of plasma concentration vs. time from 0 to infinity (AUC0→infinity),[1]; [2],300 ± 144 ng/min/mL
same,time upon which maximum plasma concentration was reached (Tmax),[1]; [2],3.7 ± 1.4 min
same,mean maximum plasma Δ9-THC concentration (Cmax) ±SD,"[1]; single inhalation of 0.5 mg Δ9-THC, vaporized ground cannabis, 22 of 27 patients analysed",14.3 ± 7.7 ng/mL
same,AUC0→infinity,[1]; [3],769 ± 331 ng/min/mL
same,Cmax ±SD,[1]; [3],33.8 ± 25.7 ng/mL
same,Tmax,[1]; [3],4.4 ± 2.1 min
same,maximum change in VAS pain score,chronic pain; [4],1.95 points
same,maximum change in VAS pain score (percent),chronic pain; [4],24%
same,decline in pain intensity compared to placebo,"chronic pain; 0.5 mg Δ9-THC dose, follow-up period",greater decline in pain intensity
same,maximum change in VAS pain score,chronic pain; [5],2.95 points
same,maximum change in VAS pain score (percent),chronic pain; [5],39.4%
same,reduction in VAS compared to placebo (0 mg) and 0.5 mg,"chronic pain; 1 mg dose, 15 minutes after inhalation and onward, RM-ANOVA p=0.0015 vs placebo, p=0.0058 vs 0.5 mg",statistically significantly larger
